Measurements reported in ChEMBL document CHEMBL4433253, “Development of a novel inducer for EBV lytic therapy” (Bioorg Med Chem Lett, 2019).
Values after ≈ are worked out from the molar mass of the structure shown. One block for each compound: values may come before it. Active and inactive are the calls of the source. The calls are words filed in the database; no cut-off is given here.

What was measured:
Human gammaherpesvirus 4 [1] = assay: Reactivation of latent EBV infected in human MUTU-I cells incubated for 48 hrs by steady-glo luciferase reporter assay; type: functional, organism-based; settings: human gammaherpesvirus 4, MUTU-I
Human gammaherpesvirus 4 [2] = assay: Reactivation of latent EBV infected in human MUTU-I cells incubated for 48 hrs by steady-glo luciferase reporter assay relative to C60; type: functional; set-up: concentration or dose not given beside the values
[3] = Stability in mouse plasma; type: ADME, cell-free; settings: read-out: Stability
[4] = Stability in human plasma; type: ADME, cell-free; settings: read-out: Stability
[5] = Half life in mouse liver microsomes; type: ADME, Microsome
[6] = Half life in human liver microsomes; type: ADME, Microsome
[7] = Aqueous solubility of compound in pH 7.4 PBS buffer; type: physicochemical
Human gammaherpesvirus 4 [8] = assay: Reactivation of latent EBV in human SNU-719 cells xenografted NSG mouse assessed as increase in BZLF1 protein level in tumor mass at 30 mg/kg, ip qd for 4 days starting from 28 days post infection by immunoblot analysis; type: functional, organism-based
Human gammaherpesvirus 4 [9] = assay: Reactivation of latent EBV in human AGS cells xenografted NSG mouse assessed as increase in BZLF1 protein level in tumor mass at 25 mg/kg, ip qd for 3 days starting from 35 days post infection by immunoblot analysis

Compound: COc1ccc(C2c3[nH]c4ccc(Cl)cc4c3CCN2C(=O)c2ccc(Cl)cc2)cc1 (centres undefined)
EC50 (Human gammaherpesvirus 4 [1]): 228 nM

Compound: COC(=O)c1cccc(NC(=O)N2CCc3c([nH]c4ccc(Cl)cc34)C2c2ccc(OC)cc2)c1 (centres undefined)
Activity (Human gammaherpesvirus 4 [2]): 17%

Compound: COc1ccc(C2c3[nH]c4ccc(Cl)cc4c3CCN2S(=O)(=O)c2ccccc2OC)cc1 (centres undefined)
EC50 (Human gammaherpesvirus 4 [1]): 4010 nM

Compound: COc1ccc(C2c3[nH]c4ccc(Cl)cc4c3CCN2C(=O)c2cccc(OC)c2)cc1 (centres undefined)
EC50 (Human gammaherpesvirus 4 [1]): 168 nM
half-life [3]: > 6 h
half-life [4]: > 6 h
t1/2 [5]: 0.517 h
t1/2 [6]: > 1.5 h
solubility [7]: 166 µg/mL (≈ 371 µM)

Compound: COc1ccc(C2c3[nH]c4ccc(Cl)cc4c3CCN2C(=O)Nc2ccc(OC)cc2OC)cc1 (centres undefined)
EC50 (Human gammaherpesvirus 4 [1]): 1130 nM

Compound: COC(=O)c1ccccc1NC(=O)N1CCc2c([nH]c3ccccc23)C1c1ccc(OC)cc1 (centres undefined)
Activity (Human gammaherpesvirus 4 [2]): 14%

Compound: COc1ccc(C2c3[nH]c4ccc(Cl)cc4c3CCN2S(=O)(=O)c2ccc(OC)cc2)cc1 (centres undefined)
EC50 (Human gammaherpesvirus 4 [1]): 8030 nM

Compound: COc1ccc(C2c3[nH]c4ccc(Cl)cc4c3CCN2C(=O)Nc2cccc(OC)c2)cc1 (centres undefined)
Activity (Human gammaherpesvirus 4 [2]): 43%

Compound: COc1ccc(C2c3[nH]c4ccc(Cl)cc4c3CCN2C(=O)c2ccccc2OC)cc1 (centres undefined)
EC50 (Human gammaherpesvirus 4 [1]): 4270 nM

Compound: COCCOCCOCCOc1ccc(C2c3[nH]c4ccc(Cl)cc4c3CCN2C(=O)Nc2ccccc2C(=O)OC)cc1 (centres undefined)
Activity (Human gammaherpesvirus 4 [8]): Active
Activity (Human gammaherpesvirus 4 [9]): Active

EC50 (Human gammaherpesvirus 4 [1]): 277 nM
Compound: COc1ccc(C2c3[nH]c4ccc(Cl)cc4c3CCN2C(=O)c2cccc(CN3CCOCC3)c2)cc1 (centres undefined)

Compound: COC(=O)c1sccc1NC(=O)N1CCc2c([nH]c3ccc(OC)cc23)C1c1ccc(C)cc1 (centres undefined)
EC50 (Human gammaherpesvirus 4 [1]): 576 nM

Compound: COc1ccc(C2c3[nH]c4ccc(Cl)cc4c3CCN2C(=O)c2ccc(C(F)(F)F)cc2)cc1 (centres undefined)
EC50 (Human gammaherpesvirus 4 [1]): 434 nM

Compound: COc1ccc(NC(=O)N2CCc3c([nH]c4ccc(Cl)cc34)C2c2ccc(OC)cc2)cc1 (centres undefined)
Activity (Human gammaherpesvirus 4 [2]): 31%

Compound: COc1ccc(C2c3[nH]c4ccc(Cl)cc4c3CCN2C(=O)Nc2ccccc2OC)cc1 (centres undefined)
EC50 (Human gammaherpesvirus 4 [1]): 169 nM
Activity (Human gammaherpesvirus 4 [2]): 79%

EC50 (Human gammaherpesvirus 4 [1]): 277 nM
Compound: O=C(c1cccc(CN2CCOCC2)c1)N1CCc2c([nH]c3ccc(Cl)cc23)C1c1ccc(Cl)cc1 (centres undefined)

Compound: COc1ccc(C2c3[nH]c4ccc(Cl)cc4c3CCN2C(=O)c2ccccc2C(F)(F)F)cc1 (centres undefined)
EC50 (Human gammaherpesvirus 4 [1]): 1580 nM

Compound: COc1ccc(C2c3[nH]c4ccc(Cl)cc4c3CCN2C(=O)c2ccccc2Cl)cc1 (centres undefined)
EC50 (Human gammaherpesvirus 4 [1]): 2430 nM

EC50 (Human gammaherpesvirus 4 [1]): 310 nM
Compound: COc1cccc(C(=O)N2CCc3c([nH]c4ccc(Cl)cc34)C2c2ccc(O)cc2)c1 (centres undefined)
Activity (Human gammaherpesvirus 4 [8]): Active

Compound: CCOC(=O)c1ccccc1NC(=O)N1CCc2c([nH]c3ccc(OC)cc23)C1c1ccc(C)cc1 (centres undefined)
EC50 (Human gammaherpesvirus 4 [1]): 1080 nM

Compound: COCCOCCOCCOc1ccc(C2c3[nH]c4ccc(Cl)cc4c3CCN2C(=O)Nc2ccccc2Cl)cc1 (centres undefined)
Activity (Human gammaherpesvirus 4 [8]): Active
Activity (Human gammaherpesvirus 4 [9]): Active

Compound: COC(=O)c1ccccc1NC(=O)N1CCc2c([nH]c3ccc(Cl)cc23)C1c1ccc(OC)cc1 (centres undefined)
EC50 (Human gammaherpesvirus 4 [1]): 157 nM
half-life [3]: > 6 h
half-life [4]: > 6 h
t1/2 [5]: > 1.5 h
t1/2 [6]: 1.3 h
solubility [7]: < 10 µg/mL

Compound: COc1ccc(C2c3[nH]c4ccccc4c3CCN2C(=O)Nc2ccccc2OC)cc1 (centres undefined)
Activity (Human gammaherpesvirus 4 [2]): 15%

Compound: COc1ccc(C2NCCc3c2[nH]c2ccc(Cl)cc32)cc1 (centres undefined)
EC50 (Human gammaherpesvirus 4 [1]): 215 nM

Compound: COc1ccc(C(=O)N2CCc3c([nH]c4ccc(Cl)cc34)C2c2ccc(OC)cc2)cc1 (centres undefined)
EC50 (Human gammaherpesvirus 4 [1]): 154 nM
